Source: paper PMC7215935, “GM1 Oligosaccharide Crosses the Human Blood–Brain Barrier In Vitro by a Paracellular Route” (International Journal of Molecular Sciences, 2020)

Key:
TrkA-ERK1/2 pathway = TrkA-ERK1/2 pathway activation in N2a cells (immunoblotting); format: cell-based, mouse; details: basolateral solution
Protocol: Precisely, [^3H]OligoGM1 (1 × 10^6 dpm) diluted into cold OligoGM1 solution (300 µM) was administered for 240 min to hBLECs in the upper compartment so that at a volume of 0.5 mL there was 150 nmol of OligoGM1. […] After the 240 min incubation period, the basolateral solution was screened to find the quantity of crossed OligoGM1 by measuring ^3H-radioactivity and was then administered to N2a cells for 24 h. For control cells, we administered a basolateral solution derived from hBLECs incubated with Transfectagro without OligoGM1. Morphological signals of neurodifferentiation were evaluated by cell observation and TrkA-ERK1/2 pathway activation was verified by immunoblotting (for procedural details see Supplementary Materials and [22, 23]).
Caco-2 cells are not listed as commonly misidentified cell line by the International Cell Line Authentication Committee. However it is reported that culture condition and cell origin can deeply affect Caco-2 morphology and behavior [4-6]. […]
Since mycoplasma could infect of Caco-2 cells, we validated the absence of any contamination by two methods (data not shown). […] Briefly culture supernatants were mixed with MycoAlert reagents according to manufacturer instruction and the luminescence was measured after 10 min using fluorimeter (BioTek, H1, Vermont, Winooski). […]
It is calculated according to the equation (1): […]

[1] = system: human brain-like endothelial cells (hBLECs); assay: Direct transport (apical to basolateral, A → B) across the hBLEC monolayer: Pe and Papp; format: in vitro ADME; details: 300 μM apical, after 240 min
hBLECs = assay: Toxicity on hBLECs / monolayer integrity by LY permeability in combination with test substance; format: cell-based, human; details: 10, 50, 100 and 300 μM with 50 μM LY, 60 min and over time (20, 40, 60 min)
Protocol: Prior to the experiments, in order to verify the hBLECs’ monolayer integrity and stability, the permeability parameters were verified as previously reported. Briefly, 1.5 mL Ringer–Hepes solution (RH) (150 mM NaCl, 5.2 mM KCl, 2.2 mM CaCl2, 0.2 mM MgCl26H2O, 6 mM NaHCO3, 5 mM HEPES, pH: 7.4) was added to empty wells of a 12-well plate. Filter insert containing confluent monolayers of hBLECs or not (control) were subsequently placed in the 12-well plate, filled with 0.5 mL RH buffer containing the fluorescent integrity marker LY (50 μM), and then placed on an orbital shaker (150 rpm, Heidolph Titramax 100) at 37 °C in a humidify atmosphere of 95% air/5% CO2. Every 20 min for 1 h, filter inserts were withdrawn from the receiver compartment and placed in the next one. To verify the quantity of LY, at the end of the experiments, aliquots from the donor solution were taken at the end of the experiments and the fluorescence was quantified using a quantification curve of LY as referee. At least three inserts with cells and three without cells were tested in each permeability measurement. The fluorescence was measured using a luminescence spectrometer (LS 50B, Perkin Elmer), using the following excitation/emission wavelength (nm) settings: 432/538. Pe parameters were calculated according to the formulas shown in the Supplementary Information (Equations (7)–(10)). In parallel, as positive control for breakdown of hBLECs, D-mannitol, was used at a concentration of 1.4 M. At this concentration, mannitol induces an osmotic shock, and thus an increase in paracellular permeability.
To evaluate the toxicity of GM1 and OligoGM1, the LY endothelial permeability (Pe) and apparent permeability (Papp) were considered for evaluation of hBLEC monolayer integrity after administration of compounds.
To examine the LY permeability, 1.5 mL of RH buffer was added to empty wells of a 12-well plate, then hBLEC filters were placed in the 12-well plate and filled with 0.5 mL RH buffer containing 50 μΜ LY plus OligoGM1 or GM1 at an appropriate test concentration (from 5 to 300 μΜ). The hBLEC inserts were moved every 20 min to a new RH-filled well up to 60 min. At the end of the incubation period, solutions were collected from apical and basolateral compartments, LY was quantified, and Papp was calculated as reported in the Supplementary Information (Equation (1)) and previously mentioned.

- concentration in receiving compartment [1]: ~ 25 μM
- share of administered amount in receiving compartment ([1]; Transfectagro medium): 25%
SMILES: CC(=O)NC1C(O)CC(OC2C(O)C(OC3C(CO)OC(O)C(O)C3O)OC(CO)C2OC2OC(CO)C(O)C(OC3OC(CO)C(O)C(O)C3O)C2NC(C)=O)(C(=O)O)OC1C(O)C(O)CO (stereo not drawn) [OligoGM1, β-Gal-(1-3)-β-GalNAc-(1-4)-[α-Neu5Ac-(2-3)]-β-Gal-(1-4)-β-Glc]
- TrkA-ERK1/2 pathway (pTrkA, pERK1/2) (TrkA-ERK1/2 pathway): activation of the TrkA-ERK1/2 pathway
- effect on LY Pe and Papp (toxicity to hBLECs) (hBLECs): no variations of LY Pe and Papp were observed
